{"source": "patent US20240252486A1", "about": "“ALGOSTATIC AGENTS FOR PREVENTING TRANSITION FROM ACUTE TO CHRONIC PAIN” (The Regents of the University of California, priority 2021, published 2024)", "key": {"[1]": {"test_system": "spinal-cord transcription", "experiment": "RNA sequencing and metabolomic analysis of L4-L6 spinal cord", "type": "in vivo, mouse", "settings": "systemic ARN19702 administration on PFD2-3", "method": "RNA sequencing and bioinformatics analysis: We extracted total RNA with the RNeasy Mini Kit (Qiagen). Samples with RNA integrity number ≥8.5 were kept for library construction. cDNA synthesis, amplification, library construction, and sequencing were performed at Novogene (Bejing, China) using the Illumina NovaSeq platform with paired-end 150 bp (PE 150) sequencing strategy. Downstream analysis was performed using a combination of programs including STAR, HTseq, Cufflink and Novogene's wrapped scripts. Alignments were parsed using the STAR program and differential expressions were determined using DESeq2/edgeR. Gene Ontology (GO) and Kyoto Encyclopedia of Genes and Genomes (KEGG) enrichment were implemented using the ClusterProfiler.\nMetabolomic analysis: Metabolomics analyses were performed at the West Coast Metabolomics Center of the University of California Davis, as described^55. Briefly, frozen lumbar spinal cord (L4-L6) fragments (˜5 mg) were homogenized in Eppendorf tubes (2 ml) for 2 min using metal spheres ([…] diameter) in a MM300 mill (Retsch, Germany). A mixture of isopropanol/acetonitrile/water (3/3/2, vol) was added to the grounded tissue (1 ml per 20 mg), stirred for 10 s and shaken at 4° C. for 5 min. […]"}, "[2]": {"test_system": "PEA levels in ipsilateral lumbar spinal cord (L4-L6)", "experiment": "PEA quantification in lumbar spinal cord (LC/MS-MS)", "type": "in vivo, mouse", "settings": "post-formalin ARN19702 30 mg-kg^−1 IP on PFD2-4; 2 h after administration", "method": "Lipid extraction: Lumbar L4-L6 spinal cord fragments (˜15 mg each) were transferred into 2 ml Precellys® soft tissue tubes (Bertin Instruments, France) and diluted with ice-cold acetone (1 ml) containing [2H4]-PEA (50 μl, 100 nM) Samples were homogenized at 4° C., 6000 rpm, 15 s/cycle for 2 cycles with 20 s pause in between cycles. Supernatants were transferred into 8-ml glass vials and dried under nitrogen. Chloroform/methanol (2/1, vol, 3 ml) and water (1 ml) were added to the samples, which were then stirred vigorously and centrifuged at 830×g for 15 min at 4° C. The lower (organic) phases were collected and upper phases were extracted again with chloroform (2 ml) and combined with the previous extract. Extracts were dried under nitrogen, reconstituted in acetonitrile (0.1 ml), transferred to deactivated glass inserts and placed inside amber glass vials for liquid chromatography/tandem mass spectrometry (LC/MS-MS) analyses.\nPEA quantification: PEA was fractionated using a 1260 series LC system (Agilent Technologies, Santa Clara, CA) coupled to a 6460C triple-quadrupole mass spectrometric detector (MSD; Agilent). […] The MSD was operated in the positive electrospray ionization mode, and analytes were quantified by multiple reaction monitoring. […]"}}, "data": [{"smiles": "CCS(=O)(=O)c1ccccc1C(=O)N1CCN(c2nc3ccc(F)cc3s2)C[C@@H]1C", "note": "[ARN19702]", "values": [{"measurement": "transcriptional and metabolic changes in L4-L6 spinal cord on the following day", "setting": "[1]", "result": "prevented the appearance"}, {"measurement": "PEA levels in ipsilateral lumbar spinal cord (L4-L6)", "setting": "[2]", "result": "normalized"}]}]}
